Experiments:
[1] = biological target: T1, Full length DGKζ (in-house protein M1-V929) (Homo sapiens, UniProt Q13574); test: Biochemical DGK IC50 assay (ADP-Glo, lipid micelle substrate), DGKζ; conditions: 1 hour preincubation, 1 hour reaction, room temperature
T1 construct: His (N); TEV site (N); made in house; host or cells: Sf9 insect cells (Bac-to-Bac baculovirus)
How it was run: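 Enzyme: full-length human DGKζ M1-V929, produced in baculovirus-infected Sf9 cells; substrate DAG/PS micelles. Buffer 50 mM HEPES, 10 mM MgCl2, 0.01 mM CaCl2, 0.1 mM Na3VO4.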

[2] = biological target: T2, Full length DGKα (D21-10BG, SignalChem) (Homo sapiens, UniProt P23743); test: Biochemical DGK IC50 assay (ADP-Glo, lipid micelle substrate), DGKα; conditions: 1 hour preincubation, 1 hour reaction, room temperature
T2 construct: Full length DGKα (D21-10BG, SignalChem); purchased SignalChem D21-10BG
T2 sequence (P23743 whole entry): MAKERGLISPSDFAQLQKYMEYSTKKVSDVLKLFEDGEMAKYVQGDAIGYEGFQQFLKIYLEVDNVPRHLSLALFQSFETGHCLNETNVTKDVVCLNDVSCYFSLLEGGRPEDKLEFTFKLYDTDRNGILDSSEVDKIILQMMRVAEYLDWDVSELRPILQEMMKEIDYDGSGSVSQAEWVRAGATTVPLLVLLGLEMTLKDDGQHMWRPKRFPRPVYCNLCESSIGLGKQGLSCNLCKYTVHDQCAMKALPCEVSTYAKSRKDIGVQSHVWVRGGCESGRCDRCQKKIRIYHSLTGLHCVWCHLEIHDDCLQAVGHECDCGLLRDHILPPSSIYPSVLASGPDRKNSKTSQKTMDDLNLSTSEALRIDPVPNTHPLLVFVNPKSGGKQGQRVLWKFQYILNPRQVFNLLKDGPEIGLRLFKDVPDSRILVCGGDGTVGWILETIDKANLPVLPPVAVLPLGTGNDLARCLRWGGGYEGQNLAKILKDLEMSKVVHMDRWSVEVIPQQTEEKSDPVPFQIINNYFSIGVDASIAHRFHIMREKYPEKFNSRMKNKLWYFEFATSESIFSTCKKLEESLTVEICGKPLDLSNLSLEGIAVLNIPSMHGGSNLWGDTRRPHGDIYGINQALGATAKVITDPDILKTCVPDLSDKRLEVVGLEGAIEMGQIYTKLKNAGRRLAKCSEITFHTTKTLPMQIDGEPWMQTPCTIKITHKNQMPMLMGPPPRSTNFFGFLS
How it was run: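 ADP-Glo luminescence quantified ADP produced after a 1 h room-temperature reaction of full-length DGKα on DAG/PS micelles, in HEPES buffer containing MgCl2, CaCl2, vanadate, BSA and Tween-20. IC50 values derive from activity inhibition over a compound concentration series.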

T1 sequence (Q13574 1-929 isoform Q13574-4): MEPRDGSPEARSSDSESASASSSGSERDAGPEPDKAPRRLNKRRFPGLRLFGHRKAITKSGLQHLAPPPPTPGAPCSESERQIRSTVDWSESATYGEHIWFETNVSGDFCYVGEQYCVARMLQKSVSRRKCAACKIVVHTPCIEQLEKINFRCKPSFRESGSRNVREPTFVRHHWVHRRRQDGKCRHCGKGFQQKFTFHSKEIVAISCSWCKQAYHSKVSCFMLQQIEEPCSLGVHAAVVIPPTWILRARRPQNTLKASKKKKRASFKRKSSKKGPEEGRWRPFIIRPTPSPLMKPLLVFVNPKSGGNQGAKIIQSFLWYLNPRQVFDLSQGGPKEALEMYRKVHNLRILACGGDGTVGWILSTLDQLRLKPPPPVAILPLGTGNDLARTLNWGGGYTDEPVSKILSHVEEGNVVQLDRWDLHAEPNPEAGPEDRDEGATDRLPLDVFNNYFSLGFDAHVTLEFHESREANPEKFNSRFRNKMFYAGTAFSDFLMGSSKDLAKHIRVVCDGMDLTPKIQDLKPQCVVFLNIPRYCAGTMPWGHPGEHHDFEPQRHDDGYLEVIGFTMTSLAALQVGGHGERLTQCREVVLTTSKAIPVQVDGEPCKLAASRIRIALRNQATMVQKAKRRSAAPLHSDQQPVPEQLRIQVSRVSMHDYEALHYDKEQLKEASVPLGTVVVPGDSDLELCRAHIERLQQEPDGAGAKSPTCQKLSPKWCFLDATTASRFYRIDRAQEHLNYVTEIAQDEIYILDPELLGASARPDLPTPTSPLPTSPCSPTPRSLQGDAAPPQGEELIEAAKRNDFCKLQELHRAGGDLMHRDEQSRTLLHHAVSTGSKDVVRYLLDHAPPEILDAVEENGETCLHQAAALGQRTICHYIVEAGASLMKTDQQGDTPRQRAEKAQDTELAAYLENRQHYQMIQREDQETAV

Structure (SMILES) | IC50 [1] | IC50 [2]
CCn1c(CC#N)nc2c(N3C[C@@H](C)N(C(C)c4ccc5c(c4)OC(C)(C)O5)C[C@@H]3C)c(F)c(=O)n(C)c21 (stereo partly drawn) [Compound A188, 2-(7-((2S,5R)-4-(1-(2,2-dimethylbenzo[d][1,3]dioxol-5-yl)ethyl)-2,5-dimethylpiperazin-1-yl)-3-ethyl-6-fluoro-4-methyl-5-oxo-4,5-dihydro-3H-imidazo[4,5-b]pyridin-2-yl)acetonitrile] | 74 nM | > 150 µM
CCn1c(CC#N)nc2c(N3C[C@@H](C)N(C(C)c4ccc5c(=O)cc(C)oc5c4)C[C@@H]3C)nc(=O)n(C)c21 (stereo partly drawn) [Compound A191, 2-(6-((2S,5R)-2,5-dimethyl-4-(1-(2-methyl-4-oxo-4H-chromen-7-yl)ethyl)piperazin-1-yl)-9-ethyl-3-methyl-2-oxo-3,9-dihydro-2H-purin-8-yl)acetonitrile] | 78 nM | 40.9 µM
CCn1c(CC#N)nc2c(N3C[C@@H](C)N(C(C)c4ccc5c(c4)C(=O)N(C)CO5)C[C@@H]3C)nc(=O)n(C)c21 (stereo partly drawn) [Compound A192, 2-(6-((2S,5R)-2,5-dimethyl-4-(1-(3-methyl-4-oxo-3,4-dihydro-2H-benzo[e][1,3]oxazin-6-yl)ethyl)piperazin-1-yl)-9-ethyl-3-methyl-2-oxo-3,9-dihydro-2H-purin-8-yl)acetonitrile] | 119 nM | > 150 µM
CCn1c(CC#N)nc2c(N3C[C@@H](C)N(C(C)c4ccc5c(c4)c(=O)c(C)cn5C)C[C@@H]3C)nc(=O)n(C)c21 (stereo partly drawn) [Compound A193, 2-(6-((2S,5R)-4-(1-(1,3-dimethyl-4-oxo-1,4-dihydroquinolin-6-yl)ethyl)-2,5-dimethylpiperazin-1-yl)-9-ethyl-3-methyl-2-oxo-3,4,5,9-tetrahydro-2H-purin-8-yl)acetonitrile] | > 10000 nM | > 150 µM
Cc1ccc(C(C)N2C[C@H](C)N(c3cc(=O)n(C)c4sc(CC#N)nc34)C[C@H]2C)c(C(F)(F)F)c1 (stereo partly drawn) [Compound A196, 2-(7-((2S,5R)-2,5-dimethyl-4-(1-(4-methyl-2-(trifluoromethyl)phenyl)ethyl)piperazin-1-yl)-4-methyl-5-oxo-4,5-dihydrothiazolo[5,4-b]pyridin-2-yl)acetonitrile] | 749 nM | > 10 µM

These reach a lower IC50 [1]. Values come first.

IC50 [1] | IC50 [2] | Structure (SMILES)
34 nM | > 150 µM | CCn1c(CC#N)nc2c(N3C[C@@H](C)N(C(C)c4cc(F)c5c(c4)OC(C)(C)O5)C[C@@H]3C)c(F)c(=O)n(C)c21 (stereo partly drawn) [Compound A189, 2-(3-ethyl-6-fluoro-7-((2S,5R)-4-(1-(7-fluoro-2,2-dimethylbenzo[d][1,3]dioxol-5-yl)ethyl)-2,5-dimethylpiperazin-1-yl)-4-methyl-5-oxo-4,5-dihydro-3H-imidazo[4,5-b]pyridin-2-yl)acetonitrile]
25 nM | > 150 µM | CC(c1ccc(F)cc1C(F)(F)F)N1C[C@H](C)N(c2cc(=O)n(C)c3sc(CC#N)nc23)C[C@H]1C (stereo partly drawn) [Compound A195, 2-(7-((2S,5R)-4-(1-(4-fluoro-2-(trifluoromethyl)phenyl)ethyl)-2,5-dimethylpiperazin-1-yl)-4-methyl-5-oxo-4,5-dihydrothiazolo[5,4-b]pyridin-2-yl)acetonitrile]
